Results taken from patent US10683297B2 (Sunshine Lake Pharma Co., Ltd., priority 2017, dated 2020).

Experiments:
JAK1 (h) = target: T1, JAK1 (h) (Homo sapiens, UniProt P23458); assay: JAK1 (h) kinase assay; format: biochemical; details: [γ-33P-ATP] 10 μM or KM values; 40 minutes at room temperature
T1 construct: purchased Millipore UK Ltd (assays performed there as a service)
Procedure: The above assay procedure can be used to determine the IC50 for inhibition and/or the inhibition constant, Ki. […] The IC50 value is estimated by preparing a 10 point curve using a ½ log dilution series (for example, a typical curve may be prepared using the following compound concentrations: 3 μM, 1 μM, 0.3 μM, 0.1 μM, 0.03 μM, 0.01 μM, 0.003 μM, 0.001 μM, 0.0003 μM and 0 μM).
JAK1 (h) is incubated with 20 mM Tris/HCl pH 7.5, 0.2 mM EDTA, 500 μM […], 10 mM MgAcetate and [γ-^33P-ATP] […] The reaction is initiated by the addition of the MgATP mix. After incubation for 40 minutes at room temperature, the reaction is stopped by the addition of 3% phosphoric acid solution. 10 μL of the reaction is then spotted onto a P30 filtermat and washed three times for 5 minutes in 75 mM phosphoric acid and once in methanol prior to drying and scintillation counting.
The kinase assays described herein were performed at Millipore UK Ltd, Dundee Technology Park, Dundee DD2 1SW, UK.

[1] = Pharmacokinetics after intravenous and oral administration in rats; format: in vivo; details: for Clearance (CL) after iv dosing / AUC(0-t) / half-life / Vd: dose 1 mg/kg (Ex. 9: 0.6, Ex. 18: 0.5, Ex. 50: 0.96 mg/kg), iv dosing; for AUC(0-t) / half-life / Vd / bioavailability: rat, plasma; for Vd: read-out: Vss; for bioavailability: oral (generally 5 or 10 mg/kg) versus iv dosing, read-out: F (oral bioavailability)
Procedure: (§1) The LC/MS/MS system used in the analysis consists of an Agilent 1200 Series vacuum degasser, binary pump, well-plate autosampler, thermostatted column compartment, the Agilent G6430 Triple Quadrupole Mass Spectrometer with an electrosprayionization (ESI) source. Quantitative analysis was carried out using MRM mode. The parameters for MRM transitions are in the Table A.
(§2) An Agilent XDB-C18, 2.1×30 mm, 3.5 μM column was used for the analysis. 5 μL of the samples were injected. Analysis condition: The mobile phase was 0.1% formic acid in water (A) and 0.1% formic acid in methanol (B). The flow rate was 0.4 mL/min. And the gradient of Mobile phase was in the Table B.
(§3) Alternatively, an Agilent 6330 series LC/MS/MS spectrometer equipped with G1312A binary pumps, a G1367A autosampler and a G1314C UV detector were used in the analysis. An ESI source was used on the LC/MS/MS spectrometer. The analysis was done in positive ion mode as appropriate and the MRM transition for each analyte was optimized using standard solution. A Capcell MP-C18 100×4.6 mm I.D., 5 uM column (Phenomenex, Torrance, Calif., USA) was used during the analysis. The mobile phase was 5 mM ammonia acetate, 0.1% MeOH in water (A): 5 mM ammonia acetate, 0.1% MeOH in acetonitrile (B) (70/30, v/v). The flow rate was 0.6 mL/min. Column was maintained at ambient temperature. 20 μL of the samples were injected.
The compounds disclosed herein are assessed in pharmacokinetic studies in mice, rats, dogs or monkeys. The compounds are administered as a water solution, 2% HPMC+1% TWEEN®80 in water solution, 5% DMSO+5% solutol in saline, 4% MC suspension or capsule. For the intravenous administration, the animals are generally given at about 0.5, 0.6, 1 or 2 mg/kg dose. For the oral (p.o.) dosing, mice and rats are generally given 5 or 10 mg/kg dose, and dogs and monkeys are generally given 10 mg/kg dose. The blood samples (0.3 mL) are drawn at 0.25, 0.5, 1.0, 2.0, 3.0, 4.0, 6.0, 8.0, 12 and 24 h time points or 0.083, 0.25, 0.5, 1.0, 2.0, 4.0, 6.0, 8.0 and 24 h time points and centrifuged at 3,000 or 4000 rpm for 2 to 10 min. The plasma solutions are collected, and stored at […] until analyzed by LC/MS/MS as described above.

[2] = Compound stability in human liver microsomes; format: in vitro ADME; details: for half-life at 5 μM: human liver microsomes 0.5 mg protein/mL, compound 5 μM, NADPH 1.0 mM, pH 7.4, 37° C., read-out: Human T1/2; for CLint scaled at 5 μM: liver microsomes, pH 7.4, in vivo CLint extrapolated from human liver microsome incubation
Procedure: as §1, §2, §3
(§4) Human or rat liver microsomes incubations were conducted in duplicate in polypropylene tubes. The typical incubation mixtures consisted of human or rat liver microsomes (0.5 mg protein/mL), compounds of interest (5 μM) and NADPH (1.0 mM) in a total volume of 200 μL potassium phosphate buffer (PBS, 100 mM, pH 7.4). Compounds were dissolved in DMSO and diluted with PBS such that the final concentration of DMSO was 0.05%. The enzymatic reactions were commenced with the addition of […] after a 3-min preincubation and incubated in a water bath open to the air at 37° C. Reactions were terminated at various time points (0, 5, 10, 15, 30, 60 min) by adding equal volume of ice-cold acetonitrile. The samples were stored at […] until LC/MS/MS assays.
(§5) The concentrations of compounds in the incubation mixtures of human or rat liver microsomes were determined by a LC/MS/MS method. The ranges of the linearity in the concentration range were determined for each tested compounds.
(§6) A parallel incubation was performed using denatured microsomes as the negative control, and reactions were terminated at various time points (0, 15, 60 min) after incubation at 37° C.
(§7) Dextromethorphan (70 μM) was selected as the positive control, and reactions were terminated at various time points (0, 5, 10, 15, 30, 60 min) after incubation at 37° C. Both positive and negative control samples were included in each assay to ensure the integrity of the microsomal incubation system.
(§8) The concentrations of compounds in human or rat liver microsome incubations were plotted as a percentage of the relevant zero time point control for each reaction. The in vivo CLint were extrapolated (ref.: Naritomi, Y.; Terashita, S.; Kimura, S.; Suzuki, A.; Kagayama, A.; and Sugiyama, Y.; Prediction of human hepatic clearance from in vivo animal experiments and in vitro metabolic studies with liver microsomes from animals and humans. Drug Metab. Dispos., 2001, 29: 1316-1324).

[3] = Compound stability in rat liver microsomes; format: in vitro ADME; details: for CLint scaled at 5 μM: liver microsomes, pH 7.4, in vivo CLint extrapolated from rat liver microsome incubation; for half-life at 5 μM: rat liver microsomes 0.5 mg protein/mL, compound 5 μM, NADPH 1.0 mM, pH 7.4, 37° C., read-out: Rat T1/2
Procedure: as §1, §2, §3, §4, §5, §6, §7, §8

T1 sequence (P23458 whole entry): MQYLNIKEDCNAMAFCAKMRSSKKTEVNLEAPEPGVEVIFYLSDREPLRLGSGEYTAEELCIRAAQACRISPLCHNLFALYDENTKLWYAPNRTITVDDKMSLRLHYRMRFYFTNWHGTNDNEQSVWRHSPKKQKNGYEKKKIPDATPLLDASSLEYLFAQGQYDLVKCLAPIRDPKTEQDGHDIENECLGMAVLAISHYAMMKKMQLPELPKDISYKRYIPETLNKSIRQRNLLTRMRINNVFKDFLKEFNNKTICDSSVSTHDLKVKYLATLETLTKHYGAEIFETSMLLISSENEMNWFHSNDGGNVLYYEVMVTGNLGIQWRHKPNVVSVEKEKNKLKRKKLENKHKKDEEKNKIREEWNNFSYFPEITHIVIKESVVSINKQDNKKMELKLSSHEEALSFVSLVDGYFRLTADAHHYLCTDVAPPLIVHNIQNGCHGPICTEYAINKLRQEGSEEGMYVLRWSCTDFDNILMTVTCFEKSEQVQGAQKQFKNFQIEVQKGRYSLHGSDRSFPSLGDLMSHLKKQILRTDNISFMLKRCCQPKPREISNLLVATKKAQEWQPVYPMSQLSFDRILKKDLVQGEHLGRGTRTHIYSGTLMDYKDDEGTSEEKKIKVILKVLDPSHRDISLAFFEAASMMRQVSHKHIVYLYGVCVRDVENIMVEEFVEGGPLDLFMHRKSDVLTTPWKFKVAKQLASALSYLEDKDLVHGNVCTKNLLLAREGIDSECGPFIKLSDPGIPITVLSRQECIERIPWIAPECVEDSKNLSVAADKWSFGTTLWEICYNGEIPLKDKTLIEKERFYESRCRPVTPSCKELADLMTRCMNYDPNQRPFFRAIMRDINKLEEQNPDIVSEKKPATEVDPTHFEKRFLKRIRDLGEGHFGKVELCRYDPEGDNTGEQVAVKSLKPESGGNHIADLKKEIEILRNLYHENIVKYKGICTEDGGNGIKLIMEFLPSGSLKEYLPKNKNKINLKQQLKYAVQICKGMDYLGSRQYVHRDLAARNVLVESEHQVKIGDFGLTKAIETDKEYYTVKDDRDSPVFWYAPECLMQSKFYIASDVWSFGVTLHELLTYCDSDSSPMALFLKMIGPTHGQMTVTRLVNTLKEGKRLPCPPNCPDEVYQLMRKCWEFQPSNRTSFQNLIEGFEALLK

Row | SMILES | IC50 (JAK1 (h)) | Clearance (CL) after iv dosing [1] | AUC(0-t) [1] | half-life [1] | Vd [1] | bioavailability [1] | half-life at 5 μM [2] | CLint scaled at 5 μM [2] | CLint scaled at 5 μM [3] | half-life at 5 μM [3]
1 | N#Cc1ccc(N2CCC(Nc3nc(Nc4ccc5c(c4)ncn5CC4CC4)ncc3Cl)CC2)nn1 [Example 63, 6-(4-((5-chloro-2-((1-(cyclopropylmethyl)-1H-benzo[d]imidazol-5-yl)amino)pyrimidin-4-yl)amino)piperidin-1-yl)pyridazine-3-carbonitrile] | 0.4 nM |  |  |  |  |  |  |  |  | 
2 | CC(O)Cn1ccc2cc(Nc3ncc(Cl)c(NC4CCN(c5ccc(C#N)cn5)CC4)n3)cnc21 (stereo not drawn) [Example 54, 6-(4-((5-chloro-2-((1-(2-hydroxypropyl)-1H-pyrrolo[2,3-b]pyridin-5-yl)amino)pyrimidin-4-yl)amino)piperidin-1-yl)nicotinonitrile] |  | 23.8 mL/min/kg | 714 ng·h/mL | 47.4 min | 0.95 L/kg | 36.6% | 8.52 min | 204 mL/min/kg | 634 mL/min/kg | 3.92 min
3 | CN(C)C(=O)c1nc2cc(Nc3ncc(Cl)c(NC4CCN(c5ccc(C#N)cn5)CC4)n3)ccn2n1 [Example 83, 7-((5-chloro-4-((1-(5-cyanopyridin-2-yl)piperidin-4-yl)amino)pyrimidin-2-yl)amino)-N,N-dimethyl-[1,2,4]triazolo[1,5-a]pyridine-2-carboxamide] |  | 9.33 mL/min/kg | 1830 ng·h/mL | 84.6 min | 0.65 L/kg | 38.6% | 15.1 min | 115 mL/min/kg | 193 mL/min/kg | 12.9 min
4 | Cc1c(Nc2ncc(Cl)c(NC3CCN(c4ccc(C#N)nn4)CC3)n2)ccn2c(C)cnc12 [Example 29, 6-(4-((5-chloro-2-((3,8-dimethylimidazo[1,2-a]pyridin-7-yl)amino)pyrimidin-4-yl)amino)piperidin-1-yl)pyridazine-3-carbonitrile] |  | 22.3 mL/min/kg | 751 ng·h/mL | 39.6 min | 1.16 L/kg | 38.5% | 43.9 min | 39.6 mL/min/kg | 76.8 mL/min/kg | 32.4 min
5 | Cc1nc2cc(Nc3ncc(Cl)c(NC4CCN(c5ccc(C#N)nn5)CC4)n3)ccn2c1C [Example 16, 6-(4-((5-chloro-2-((2,3-dimethylimidazo[1,2-a]pyridin-7-yl)amino)pyrimidin-4-yl)amino)piperidin-1-yl)pyridazine-3-carbonitrile] | 0.3 nM |  |  |  |  |  |  |  |  | 
6 | CCC1CN(c2ccc(C#N)cn2)CCC1Nc1nc(Nc2ccn3c(C)nnc3c2)ncc1Cl (stereo not drawn) [Example 17, 6-(4-((5-chloro-2-((3-methyl-[1,2,4]triazolo[4,3-a]pyridin-7-yl)amino)pyrimidin-4-yl)amino)-3-ethylpiperidin-1-yl)nicotinonitrile] |  | 17.8 mL/min/kg | 949 ng·h/mL | 36 min | 0.67 L/kg | 48.2% | 44 min | 39.5 mL/min/kg | 302 mL/min/kg | 8.22 min
7 | CN(c1nc(Nc2ccc3ncnn3c2)ncc1Cl)C1CCN(c2ccc(C#N)cn2)CC1 [Example 9, 6-(4-((2-([1,2,4]triazolo[1,5-a]pyridin-6-ylamino)-5-chloropyrimidin-4-yl) (methyl)amino)piperidin-1-yl)nicotinonitrile] |  | 20.8 mL/min/kg | 547 ng·h/mL | 48.6 min | 1.13 L/kg | 69.1% | 71.9 min | 24.2 mL/min/kg | 303 mL/min/kg | 8.21 min
8 | Cc1nc2ccc(Nc3ncc(Cl)c(NC4CCN(c5ccc(C#N)nn5)CC4)n3)cn2n1 [Example 34, 6-(4-((5-chloro-2-((2-methyl-[1,2,4]triazolo[1,5-a]pyridin-6-yl)amino)pyrimidin-4-yl)amino)piperidin-1-yl)pyridazine-3-carbonitrile] |  | 10.5 mL/min/kg | 1560 ng·h/mL | 72 min | 1.53 L/kg | 46.9% | 125 min | 13.9 mL/min/kg | 87.5 mL/min/kg | 28.4 min
9 | CC(C)(O)c1nc2cc(Nc3ncc(Cl)c(NC4CCN(c5ccc(C#N)cn5)CC4F)n3)ccn2n1 (stereo not drawn) [Example 89, 6-(4-((5-chloro-2-((2-(2-hydroxypropan-2-yl)-[1,2,4]triazolo[1,5-a]pyridin-7-yl)amino)pyrimidin-4-yl)amino)-3-fluoropiperidin-1-yl)nicotinonitrile] | 2 nM |  |  |  |  |  |  |  |  | 
10 | N#Cc1ccc(N2CCC(Nc3nc(Nc4ccn5ccnc5c4)ncc3Cl)CC2)nn1 [Example 4, 6-(4-((5-chloro-2-(imidazo[1,2-a]pyridin-7-ylamino)pyrimidin-4-yl)amino)piperidin-1-yl)pyridazine-3-carbonitrile] |  | 19 mL/min/kg | 909 ng·h/mL | 43.8 min | 1.05 L/kg | 35.1% | 22.3 min | 78.1 mL/min/kg | 75.4 mL/min/kg | 32.9 min
11 | Cc1nc2cc(Nc3ncc(Cl)c(NC4CCN(c5ccc(C#N)nn5)CC4)n3)ccn2n1 [Example 35, 6-(4-((5-chloro-2-((2-methyl-[1,2,4]triazolo[1,5-a]pyridin-7-yl)amino)pyrimidin-4-yl)amino)piperidin-1-yl)pyridazine-3-carbonitrile] |  | 5.33 mL/min/kg | 3110 ng·h/mL | 156 min | 0.53 L/kg | 57.6% | 183 min | 9.5 mL/min/kg | 17.2 mL/min/kg | 144 min
